# Columns and labels:
# [1] = Lymphocyte viability assay (LCV, MTT) on murine splenocytes; assay type: cell-based; conditions: mouse, splenocytes
# Protocol: (§1) Preparation of splenocyte cell suspensions. […] The resulting supernatant was then transferred to another sterile centrifuge tube, and the cell concentration adjusted to 2×10^6 cells/ml dilution with TCM.
# (§2) Determination of mycalamide A toxicity. The toxicity of mycalamide A on murine splenocytes and human PBL was determined using a colorimetric assay, based on the ability of viable cells to convert the colorless tetrazolium salt, 3-(4,5-dimethylthiazol-2yl)-2,5-diphenyl tetrazolium bromide (MTT) to a colored formazan product and trypan blue exclusion. For the colorimetric assay, a volume of 0.075 ml of an MTT solution (550 μg/ml of MTT in TCM) was added to test and control wells containing one of the populations of splenocytes or test wells and incubated for 5-6 hours following the initial incubation period. Microtiter plates were centrifuged at 100× g, supernatants carefully removed, and a volume of 0.20 ml of isopropyl alcohol was added to each well to dissolve the formazan crystals. The absorbance at 570 nm was determined for each well using an ELISA plate reader. […] As an additional parameter of toxicity, wells containing cultured lymphocytes with various dilutions of mycalamide A were examined with trypan blue, and the percentage of dye-excluding (viable) cells was determined.
# [2] = system: murine splenocytes; experiment: as above; assay type: cell-based; conditions: mitogen study, in words
# Protocol: as §1, §2
# [3] = Lymphocyte viability assay (LCV, MTT) on human PBL; assay type: cell-based; conditions: for viability: human MLR, MTT
# Protocol: Preparation of human peripheral blood leukocyte (PBL) suspensions. Human peripheral blood suspensions were prepared from Leukotrap blood filters as follows: Leukotrap filters containing processed leukocytes from random, unrelated blood donors were obtained from the Indian River Blood Bank (Vero Beach, Fla.). Buffy-coat blood cell suspensions were recovered by reverse-flow phosphate-buffered saline purging and centrifugation for 15 minutes at 475× g. Buffy coats were removed, and 5 ml of the suspension was layered onto 5 ml of Histopaque gradient material. The Histopaque gradients were centrifuged at 475× g for 30 minutes. Lymphocytes were removed from the Histopaque-medium interface, and washed twice with 10 ml of PBS (Dulbecco's phosphate-buffered saline without CaCl2 and MgCl2.6H2 O). The final cell pellet was resuspended in TCM, and the cell concentration adjusted to 2×10^6 cells/ml.
# as §2
# [4] = system: T cells; experiment: T cell viability by trypan blue exclusion; assay type: cell-based, murine
# Protocol: as §2
# Compounds were added as indicated. Cells were harveste
# Each data point represents the mean value o
# [5] = system: two-way murine mixed lymphocyte response (C57BL/6J and BALB/c splenocytes); experiment: Two-way murine mixed lymphocyte reaction (MLR), 3H-thymidine incorporation; assay type: cell-based
# Protocol: as §1
# Two way mixed lymphocyte reaction (MLR). The immunosuppressive properties of mycalamide A were evaluated using the two-way MLR, utilizing murine splenocytes and human PBL. For the murine MLR, splenocytes from C57Bl/6J and BALB/c mice were prepared as described above, and a volume of […] of each cell suspension was added together to test and control wells of microtiter plates. Wells containing 0.20 ml of each cell suspension alone served as controls.
# Dilutions of the drug to be tested were prepared in absolute EtOH and further diluted to the appropriate concentration in TCM and added directly to the wells containing splenocyte combinations. Additional solvent (EtOH) control wells were also prepared by adding the equivalent percentage of EtOH to each culture well. Plates were incubated at 37° C. in a 5% CO2 humidified atmosphere for 88 hours. Following the incubation, 1.0 μCi of ^3 H-thymidine was added to each well, and the plates were returned to the incubator for 5 hours. The contents of each well were harvested onto glass-fiber filter strips, and the incorporation of ^3 H-thymidine was determined by a liquid scintillation counter. Similar conditions were utilized for MLR cultures using human peripheral blood lymphocytes prepared from unrelated donors as described above, with the exception that the initial incubation and subsequent ^3 H-thymidine pulse times were different (114 hours for initial incubation followed by a 6-hour incubation with ^3 H-thymidine). Plates were harvested in a similar manner, and ^3 H-thymidine incorporation determined as described above.
smiles,measurement,setting,value
"C=C1CC(OC)(C(O)C(=O)NC2OCOC3C2OC(CC(O)CO)C(C)(C)C3OC)OC(C)C1C (centres unmarked) [Mycalamide A, mycalamide A]",viability,"[1]; MLR, 5.0 × 10^0 μg/ml, MTT, read-out: % Viability (LCV)",0%
same,viability,"[1]; MLR, 5.0 × 10^1 μg/ml, MTT, read-out: % Viability (LCV)",0%
same,viability,"[1]; MLR, 5.0 × 10^2 μg/ml, MTT, read-out: % Viability (LCV)",0%
same,viability,"[1]; MLR, 5.0 × 10^-1 μg/ml, MTT, read-out: % Viability (LCV)",55%
same,viability,"[1]; MLR, 5.0 × 10^-2 μg/ml, MTT, read-out: % Viability (LCV)",79%
same,viability,"[1]; MLR, 5.0 × 10^-3 μg/ml, MTT, read-out: % Viability (LCV)",66%
same,viability,"[1]; MLR, 5.0 × 10^-4 μg/ml, MTT, read-out: % Viability (LCV)",62%
same,viability,"[1]; MLR, 5.0 × 10^-5 μg/ml, MTT, read-out: % Viability (LCV)",63%
same,viability,"[1]; MLR, 5.0 × 10^-6 μg/ml, MTT, read-out: % Viability (LCV)",83%
same,viability,"[1]; MLR, 5.0 × 10^-7 μg/ml, MTT, read-out: % Viability (LCV)",71%
same,viability,"[1]; MLR, 5.0 × 10^-8 μg/ml, MTT, read-out: % Viability (LCV)",100%
same,viability,"[1]; MLR, 5.0 × 10^-9 μg/ml, MTT, read-out: % Viability (LCV)",> 99%
same,viability,"[1]; MLR, 5.0 × 10^-10 μg/ml, MTT, read-out: % Viability (LCV)",> 99%
same,viability,"[1]; MLR, 5.0 × 10^-11 μg/ml, MTT, read-out: % Viability (LCV)",> 99%
same,viability,"[1]; MLR, 5.0 × 10^-12 μg/ml, MTT, read-out: % Viability (LCV)",> 99%
same,viability,"[1]; MLR, 5.0 × 10^-13 μg/ml, MTT, read-out: % Viability (LCV)",> 99%
same,viability,"[1]; MLR, 5.0 × 10^-14 μg/ml, MTT, read-out: % Viability (LCV)",> 99%
same,viability,"[1]; MLR, 5.0 × 10^-15 μg/ml, MTT, read-out: % Viability (LCV)",> 99%
same,viability,"[1]; MLR, 5.0 × 10^-16 μg/ml, MTT, read-out: % Viability (LCV)",> 99%
same,viability,"[1]; MLR, 5.0 × 10^-17 μg/ml, MTT, read-out: % Viability (LCV)",> 99%
same,viability,"[1]; MLR, 5.0 × 10^-18 μg/ml, MTT, read-out: % Viability (LCV)",> 99%
same,viability,"[1]; MLR, 5.0 × 10^-19 μg/ml, MTT, read-out: % Viability (LCV)",> 99%
same,viability,"[1]; mitogen study, 5.0 × 10^0 μg/ml, read-out: LCV, % viability",1%
same,viability,"[1]; mitogen study, 5.0 × 10^1 μg/ml, read-out: LCV, % viability",2%
same,viability,"[1]; mitogen study, 5.0 × 10^2 μg/ml, read-out: LCV, % viability",3%
same,viability,"[1]; mitogen study, 5.0 × 10^-1 μg/ml, read-out: LCV, % viability",4%
same,viability,"[1]; mitogen study, 5.0 × 10^-2 μg/ml, read-out: LCV, % viability",3%
same,viability,"[1]; mitogen study, 5.0 × 10^-3 μg/ml, read-out: LCV, % viability",3%
same,viability,"[1]; mitogen study, 5.0 × 10^-4 μg/ml, read-out: LCV, % viability",4%
same,viability,"[1]; mitogen study, 5.0 × 10^-5 μg/ml, read-out: LCV, % viability",180%
same,toxicity by LCV assay,[2]; 5×10^-5 μg/ml,no toxicity
same,toxicity to the cells,[2]; greater than 5×10^-5 μg/ml,toxic to the cells
same,viability,[3]; 5.0 × 10^-1 μg/ml,42%
same,viability,[3]; 5.0 × 10^-2 μg/ml,52%
same,viability,[3]; 5.0 × 10^-3 μg/ml,46%
same,viability,[3]; 5.0 × 10^-4 μg/ml,128%
same,viability,[3]; 5.0 × 10^-5 μg/ml,111%
same,viability,[3]; 5.0 × 10^-6 μg/ml,114%
same,viability,[3]; 5.0 × 10^-7 μg/ml,116%
same,CC50,[3]; read-out: TC50 (LCV),0.083 µg/mL
same,number of cells excluding trypan blue,"[4]; 1 pM, Experiment 1, 20 hours",1.39 × 10^6 cells
same,number of cells excluding trypan blue,"[4]; 1 pM, Experiment 2, 20 hours",1.45 × 10^6 cells
same,percentage of trypan blue-positive cells,"[4]; 1 pM, Experiment 2, 20 hours",< 2%
same,number of cells excluding trypan blue,"[4]; 5 pM, Experiment 1, 20 hours",1.41 × 10^6 cells
same,number of cells excluding trypan blue,"[4]; 5 pM, Experiment 2, 20 hours",1.68 × 10^6 cells
same,percentage of trypan blue-positive cells,"[4]; 5 pM, Experiment 2, 20 hours",< 2%
same,number of cells excluding trypan blue,"[4]; 10 pM, Experiment 2, 20 hours",1.49 × 10^6 cells
same,effect on T cell viability,"[4]; trypan blue exclusion, in words",did not significantly affect the cell viability
same,activity at 5 µg/mL,"[5]; Mus musculus, Splenocyte, 5.0 × 10^0 μg/ml, read-out: % of Positive Control MLR",0%
same,activity at 50 µg/mL,"[5]; Mus musculus, Splenocyte, 5.0 × 10^1 μg/ml, read-out: % of Positive Control MLR",0%
same,activity at 500 µg/mL,"[5]; Mus musculus, Splenocyte, 5.0 × 10^2 μg/ml, read-out: % of Positive Control MLR",0%
same,activity at 0.5 µg/mL,"[5]; Mus musculus, Splenocyte, 5.0 × 10^-1 μg/ml, read-out: % of Positive Control MLR",0%
same,activity at 0.05 µg/mL,"[5]; Mus musculus, Splenocyte, 5.0 × 10^-2 μg/ml, read-out: % of Positive Control MLR",0%
same,activity at 0.005 µg/mL,"[5]; Mus musculus, Splenocyte, 5.0 × 10^-3 μg/ml, read-out: % of Positive Control MLR",0%
same,activity at 0.0005 µg/mL,"[5]; Mus musculus, Splenocyte, 5.0 × 10^-4 μg/ml, read-out: % of Positive Control MLR",0%
same,activity at 50 pg/mL,"[5]; Mus musculus, Splenocyte, 5.0 × 10^-5 μg/ml, read-out: % of Positive Control MLR",0%
same,activity at 5 pg/mL,"[5]; Mus musculus, Splenocyte, 5.0 × 10^-6 μg/ml, read-out: % of Positive Control MLR",0%
same,activity at 500 fg/mL,"[5]; Mus musculus, Splenocyte, 5.0 × 10^-7 μg/ml, read-out: % of Positive Control MLR",0%
same,activity at 50 fg/mL,"[5]; Mus musculus, Splenocyte, 5.0 × 10^-8 μg/ml, read-out: % of Positive Control MLR",0%
same,activity at 5 fg/mL,"[5]; Mus musculus, Splenocyte, 5.0 × 10^-9 μg/ml, read-out: % of Positive Control MLR",0%
same,activity at 5e-10 µg/mL,"[5]; Mus musculus, Splenocyte, 5.0 × 10^-10 μg/ml, read-out: % of Positive Control MLR",0%
same,activity at 5e-11 µg/mL,"[5]; Mus musculus, Splenocyte, 5.0 × 10^-11 μg/ml, read-out: % of Positive Control MLR",0%
same,activity at 5e-12 µg/mL,"[5]; Mus musculus, Splenocyte, 5.0 × 10^-12 μg/ml, read-out: % of Positive Control MLR",0%
same,activity at 5e-13 µg/mL,"[5]; Mus musculus, Splenocyte, 5.0 × 10^-13 μg/ml, read-out: % of Positive Control MLR",0%
same,activity at 5e-14 µg/mL,"[5]; Mus musculus, Splenocyte, 5.0 × 10^-14 μg/ml, read-out: % of Positive Control MLR",0%
same,activity at 5e-15 µg/mL,"[5]; Mus musculus, Splenocyte, 5.0 × 10^-15 μg/ml, read-out: % of Positive Control MLR",0%
same,activity at 5e-16 µg/mL,"[5]; Mus musculus, Splenocyte, 5.0 × 10^-16 μg/ml, read-out: % of Positive Control MLR",0%
same,activity at 5e-17 µg/mL,"[5]; Mus musculus, Splenocyte, 5.0 × 10^-17 μg/ml, read-out: % of Positive Control MLR",85%
same,activity at 5e-18 µg/mL,"[5]; Mus musculus, Splenocyte, 5.0 × 10^-18 μg/ml, read-out: % of Positive Control MLR",82%
same,activity at 5e-19 µg/mL,"[5]; Mus musculus, Splenocyte, 5.0 × 10^-19 μg/ml, read-out: % of Positive Control MLR",128%
same,range of concentrations that suppressed the MLR,[5]; murine,5×10^2 to 5×10^-16 μg/ml
